Several values for one entry are separate records, joined by “and”; a condition that tells them apart may be missing. Equal entries are not always repeated.
Tests used:
Format in all cases: in vivo
Conditions in all cases: after 13 days
[1] = system: Abutilon theophrasti (ABUTH); assay: Glasshouse herbicide test, sprayed 1 day after sowing, visual percentage phytotoxicity, Colby synergy
Procedure: (§1) Seeds of Amaranthus retroflexus (AMARE), Echinochloa crus-galli (ECHCG), Digitaria sanguinalis (DIGSA), Lolium perenne (LOLPE), Alopecurus myosuroides (ALOMY), Chenopodium album (CHEAL), Setaria faberi(SETFA), Abutilon theophrasti(ABUTH), Setaria viridis (SETVI) and Ipomoea hederacea (IPOHE) were sown in standard sterilised soil in pots. After cultivation for 1 day under controlled conditions in a glasshouse (at 24/16° C., day/night; 14 hours light; 65% humidity), the plants were sprayed at 500 l/Ha with an aqueous spray solution derived from the formulation of the technical active ingredients in a small amount of acetone and a solvent and emulsifier mixture referred to as IF50 (11.12% Emulsogen EL360 TM+44.44% N-methylpyrrolidone+44.44% Dowanol DPM glycol ether), to create a 50 g/l solution which was then diluted using 0.2% Genapol X080 (CAS Number: 9043-30-5) as diluent to give the desired final dose of test compound. Where active ingredients were applied as mixtures, aqueous spray solutions were prepared as above, containing both active ingredients. The test plants were then grown under controlled conditions in a glasshouse (at 24/16° C., day/night; 14 hours light; 65% humidity) and watered twice daily. After 13 days, the test was evaluated visually for percentage phytotoxicity to the plants (where 100=total damage to plant; 0=no damage to plant) when compared to control untreated plants. Two to four replicates were applied for each treatment in a randomised block test design.
(§2) 22., E=X+Y−(X*Y/100), where • X=average percent phytotoxicity of herbicide A when applied at a certain rate • Y=average percent phytotoxicity using herbicide B when applied at a certain rate • E=the expected effect of the mixture of herbicides A and B as calculated from the Colby formula.

[2] = system: Alopecurus myosuroides (ALOMY); assay: as above
Procedure: as §1, §2

[3] = system: Amaranthus retroflexus (AMARE); assay: as above
Procedure: as §1, §2

[4] = system: Chenopodium album (CHEAL); assay: as above
Procedure: as §1, §2

[5] = system: Digitaria sanguinalis (DIGSA); assay: as above
Procedure: as §1, §2

[6] = system: Echinochloa crus-galli (ECHCG); assay: as above
Procedure: as §1, §2

[7] = system: Ipomoea hederacea (IPOHE); assay: as above
Procedure: as §1, §2

Lolium perenne (LOLPE) = assay: as above
Procedure: as §1, §2

Setaria faberi (SETFA) = assay: as above
Procedure: as §1, §2

Setaria viridis (SETVI) = assay: as above
Procedure: as §1, §2

[8] = Glasshouse herbicide test, first A + B-20 table, weed species not given
Procedure: as §1, §2

Question: Which “Observed (percentage phytotoxicity)” value ([1]; 7.81 g/ha) does the source give for `CC1(C)CON(Cc2ccc(Cl)cc2Br)C1=O` [A] here?
Answer: 6%

Question: And the “Observed (percentage phytotoxicity)” value ([1]; 31.25 g/ha)?
Answer: 5% and 11%

Question: What about the “Observed (percentage phytotoxicity)” value ([1]; 125 g/ha) of the same compound?
Answer: 31%

Question: What about the “Observed (percentage phytotoxicity)” value ([2]; 7.81 g/ha) of the same compound?
Answer: 5%

Question: What about the “Observed (percentage phytotoxicity)” value ([2]; 15.63 g/ha) of the same compound?
Answer: 10%

Question: What about the “Observed (percentage phytotoxicity)” value ([2]; 31.25 g/ha) of the same compound?
Answer: 21% and 16%

Question: What about the “Observed (percentage phytotoxicity)” value ([2]; 62.5 g/ha) of the same compound?
Answer: 40%

Question: What about the “Observed (percentage phytotoxicity)” value ([2]; 125 g/ha) of the same compound?
Answer: 68%

Question: And the “Observed (percentage phytotoxicity)” value ([3]; 3.91 g/ha)?
Answer: 11%

Question: And the “Observed (percentage phytotoxicity)” value ([3]; 31.25 g/ha)?
Answer: 21%

Question: And the “Observed (percentage phytotoxicity)” value ([3]; 62.5 g/ha)?
Answer: 31% and 50%

Question: What about the “Observed (percentage phytotoxicity)” value ([3]; 125 g/ha) of the same compound?
Answer: 74%

Question: And the “Observed (percentage phytotoxicity)” value ([4]; 15.63 g/ha)?
Answer: 21%

Question: And the “Observed (percentage phytotoxicity)” value ([5]; 3.91 g/ha)?
Answer: 4%

Question: And the “Observed (percentage phytotoxicity)” value ([5]; 7.81 g/ha)?
Answer: 3%

Question: What about the “Observed (percentage phytotoxicity)” value ([5]; 15.63 g/ha) of the same compound?
Answer: 5%

Question: And the “Observed (percentage phytotoxicity)” value ([5]; 31.25 g/ha)?
Answer: 11%

Question: And the “Observed (percentage phytotoxicity)” value ([5]; 62.5 g/ha)?
Answer: 68%

Question: What about the “Observed (percentage phytotoxicity)” value ([6]; 7.81 g/ha) of the same compound?
Answer: 25% and 34%

Question: What about the “Observed (percentage phytotoxicity)” value ([6]; 15.63 g/ha) of the same compound?
Answer: 48%

Question: And the “Observed (percentage phytotoxicity)” value ([7]; 7.81 g/ha)?
Answer: 1% and 0%

Question: And the “Observed (percentage phytotoxicity)” value ([7]; 15.63 g/ha)?
Answer: 0% and 5%

Question: And the “Observed (percentage phytotoxicity)” value ([7]; 31.25 g/ha)?
Answer: 1%

Question: What about the “Observed (percentage phytotoxicity)” value ([7]; 62.5 g/ha) of the same compound?
Answer: 1%

Question: What about the “Observed (percentage phytotoxicity)” value (Lolium perenne (LOLPE); 3.91 g/ha) of the same compound?
Answer: 8%

Question: What about the “Observed (percentage phytotoxicity)” value (Lolium perenne (LOLPE); 7.81 g/ha) of the same compound?
Answer: 13%

Question: What about the “Observed (percentage phytotoxicity)” value (Lolium perenne (LOLPE); 15.63 g/ha) of the same compound?
Answer: 13%

Question: What about the “Observed (percentage phytotoxicity)” value (Lolium perenne (LOLPE); 31.25 g/ha) of the same compound?
Answer: 35% and 18%

Question: And the “Observed (percentage phytotoxicity)” value (Lolium perenne (LOLPE); 62.5 g/ha)?
Answer: 43% and 30%

Question: And the “Observed (percentage phytotoxicity)” value (Setaria faberi (SETFA); 7.81 g/ha)?
Answer: 13%

Question: What about the “Observed (percentage phytotoxicity)” value (Setaria faberi (SETFA); 15.63 g/ha) of the same compound?
Answer: 11%

Question: What about the “Observed (percentage phytotoxicity)” value (Setaria faberi (SETFA); 31.25 g/ha) of the same compound?
Answer: 41%

Question: And the “Observed (percentage phytotoxicity)” value (Setaria viridis (SETVI); 7.81 g/ha)?
Answer: 10%

Question: What about the “Observed (percentage phytotoxicity)” value (Setaria viridis (SETVI); 15.63 g/ha) of the same compound?
Answer: 26%

Question: And the “Observed (percentage phytotoxicity)” value ([8]; 15.63 g/ha)?
Answer: 10%

Question: And the “Observed (percentage phytotoxicity)” value ([8]; 31.25 g/ha)?
Answer: 21%

Question: What does the source list for `CS(=O)(=O)c1ccc(C(=O)C2C(=O)CCCC2=O)c([N+](=O)[O-])c1` [Compound B-4]?
Answer: Observed (percentage phytotoxicity) ([1]; 3.91 g/ha): 78%; Observed (percentage phytotoxicity) ([2]; 3.91 g/ha): 0%; Observed (percentage phytotoxicity) ([2]; 7.81 g/ha): 3%; Observed (percentage phytotoxicity) ([3]; 3.91 g/ha): 53%; Observed (percentage phytotoxicity) ([3]; 7.81 g/ha): 85%; Observed (percentage phytotoxicity) ([3]; 15.63 g/ha): 85%; Observed (percentage phytotoxicity) ([3]; 31.25 g/ha): 85%; Observed (percentage phytotoxicity) ([5]; 3.91 g/ha): 70%; Observed (percentage phytotoxicity) ([6]; 3.91 g/ha): 5%; Observed (percentage phytotoxicity) ([7]; 3.91 g/ha): 10%; Observed (percentage phytotoxicity) (Setaria faberi (SETFA); 3.91 g/ha): 5%; Observed (percentage phytotoxicity) (Setaria faberi (SETFA); 7.81 g/ha): 3%; Observed (percentage phytotoxicity) (Setaria faberi (SETFA); 15.63 g/ha): 8%

Question: With `CCCN(CCC)C(=O)SCc1ccccc1` [Compound B-7] as the compound, how does the “Observed (percentage phytotoxicity)” value ([1]; 62.5 g/ha) read?
Answer: 8%

Question: And the “Observed (percentage phytotoxicity)” value ([1]; 125 g/ha)?
Answer: 15%

Question: And the “Observed (percentage phytotoxicity)” value ([2]; 125 g/ha)?
Answer: 15%

Question: And the “Observed (percentage phytotoxicity)” value ([2]; 250 g/ha)?
Answer: 10%

Question: And the “Observed (percentage phytotoxicity)” value ([3]; 62.5 g/ha)?
Answer: 48%

Question: And the “Observed (percentage phytotoxicity)” value ([3]; 250 g/ha)?
Answer: 45%

Question: And the “Observed (percentage phytotoxicity)” value ([4]; 62.5 g/ha)?
Answer: 9%

Question: And the “Observed (percentage phytotoxicity)” value ([4]; 125 g/ha)?
Answer: 15%

Question: What about the “Observed (percentage phytotoxicity)” value ([4]; 250 g/ha) of the same compound?
Answer: 15%

Question: And the “Observed (percentage phytotoxicity)” value ([5]; 62.5 g/ha)?
Answer: 13%

Question: And the “Observed (percentage phytotoxicity)” value ([5]; 125 g/ha)?
Answer: 3%

Question: What about the “Observed (percentage phytotoxicity)” value ([7]; 31.25 g/ha) of the same compound?
Answer: 10%

Question: And the “Observed (percentage phytotoxicity)” value ([7]; 62.5 g/ha)?
Answer: 5%

Question: And the “Observed (percentage phytotoxicity)” value ([7]; 125 g/ha)?
Answer: 8%

Question: What about the “Observed (percentage phytotoxicity)” value ([7]; 250 g/ha) of the same compound?
Answer: 20%

Question: What about the “Observed (percentage phytotoxicity)” value (Lolium perenne (LOLPE); 62.5 g/ha) of the same compound?
Answer: 10%

Question: And the “Observed (percentage phytotoxicity)” value (Lolium perenne (LOLPE); 125 g/ha)?
Answer: 8%

Question: What about the “Observed (percentage phytotoxicity)” value (Lolium perenne (LOLPE); 250 g/ha) of the same compound?
Answer: 10%

Question: And the “Observed (percentage phytotoxicity)” value (Setaria viridis (SETVI); 31.25 g/ha)?
Answer: 5%

Question: What about the “Observed (percentage phytotoxicity)” value (Setaria viridis (SETVI); 125 g/ha) of the same compound?
Answer: 8%

Question: For `Cn1nc(C(F)(F)F)c(CS(=O)(=O)C2=NOC(C)(C)C2)c1OC(F)F` [Compound B-9], which “Observed (percentage phytotoxicity)” value ([1]; 3.91 g/ha) is on record?
Answer: 40%

Question: What about the “Observed (percentage phytotoxicity)” value ([1]; 7.81 g/ha) of the same compound?
Answer: 55%

Question: And the “Observed (percentage phytotoxicity)” value ([3]; 1.95 g/ha)?
Answer: 40%

Question: And the “Observed (percentage phytotoxicity)” value ([5]; 1.95 g/ha)?
Answer: 13%

Question: What about the “Observed (percentage phytotoxicity)” value ([5]; 3.91 g/ha) of the same compound?
Answer: 43%

Question: What about the “Observed (percentage phytotoxicity)” value ([5]; 7.81 g/ha) of the same compound?
Answer: 65%

Question: And the “Observed (percentage phytotoxicity)” value ([7]; 7.81 g/ha)?
Answer: 53%

Question: What about the “Observed (percentage phytotoxicity)” value ([7]; 15.63 g/ha) of the same compound?
Answer: 73%

Question: What about the “Observed (percentage phytotoxicity)” value (Lolium perenne (LOLPE); 1.95 g/ha) of the same compound?
Answer: 14%

Question: And the “Observed (percentage phytotoxicity)” value (Lolium perenne (LOLPE); 3.91 g/ha)?
Answer: 40%

Question: And the “Observed (percentage phytotoxicity)” value (Lolium perenne (LOLPE); 7.81 g/ha)?
Answer: 44%

Question: What about the “Observed (percentage phytotoxicity)” value (Lolium perenne (LOLPE); 15.63 g/ha) of the same compound?
Answer: 48%

Question: And the “Observed (percentage phytotoxicity)” value (Lolium perenne (LOLPE); 31.25 g/ha)?
Answer: 66%

Question: With `CC(C)N(C(=O)COc1nnc(C(F)(F)F)s1)c1ccc(F)cc1` [Compound B-16] as the compound, how does the “Observed (percentage phytotoxicity)” value ([1]; 15.63 g/ha) read?
Answer: 23%

Question: And the “Observed (percentage phytotoxicity)” value ([3]; 31.25 g/ha)?
Answer: 70%

Question: And the “Observed (percentage phytotoxicity)” value ([4]; 15.63 g/ha)?
Answer: 48%

Question: And the “Observed (percentage phytotoxicity)” value ([7]; 3.91 g/ha)?
Answer: 5%

Question: What about the “Observed (percentage phytotoxicity)” value ([7]; 7.81 g/ha) of the same compound?
Answer: 8%

Question: What about the “Observed (percentage phytotoxicity)” value (Lolium perenne (LOLPE); 3.91 g/ha) of the same compound?
Answer: 45%

Question: What does the source list for `O=C(Nc1ccc(F)cc1F)c1cccnc1Oc1cccc(C(F)(F)F)c1` [Compound B-20]?
Answer: Observed (percentage phytotoxicity) ([1]; 3.91 g/ha): 8%; Observed (percentage phytotoxicity) ([1]; 15.63 g/ha): 20%; Observed (percentage phytotoxicity) ([1]; 31.25 g/ha): 18%; Observed (percentage phytotoxicity) ([4]; 15.63 g/ha): 8%; Observed (percentage phytotoxicity) ([5]; 31.25 g/ha): 68%; Observed (percentage phytotoxicity) ([6]; 15.63 g/ha): 10%; Observed (percentage phytotoxicity) ([7]; 31.25 g/ha): 5%; Observed (percentage phytotoxicity) ([8]; 15.63 g/ha): 23%; Observed (percentage phytotoxicity) ([8]; 31.25 g/ha): 23%
